Data on 4 molecules can be found in patent US11945812B2, “Annulated 2-amino-3-cyano thiophenes and derivatives for the treatment of cancer” (Boehringer Ingelheim International GmbH, priority 2020, dated 2024).

What is called IC50 is the concentration at which inhibition is half-maximal.

Data set [1] has as its system NCI-H358 cells. Description: NCI-H358 CTG proliferation assay (120 h) (NSCLC). The note with it: Homo sapiens, read-out: IC50 NCl-H358. It counts as cell-based. As to the method: NCI-H358 CTG Proliferation Assay (120 h) (NSCLC)
NCI-H358 cells (ATCC No. CRL-5807) were dispensed into white bottom opaque 96 well plates (Perkin Elmer cat no. 5680) at a density of 2000 cells per well in 100 μL RPMI-1640 ATCC-Formulation (Gibco # A10491)+10% FCS. Cells were incubated overnight at 37° C. in a humidified tissue culture incubator at 5% CO2. Compounds (10 mM stock in DMSO) were added at logarithmic dose series using the HP Digital Dispenser D300 (Tecan), normalizing for added DMSO. For the TO time point measurement, untreated cells were analyzed at the time of compound addition. Plates were incubated for 120 hours, and cell viability was measured using CellTiter-Glo luminescent cell viability reagent (Promega product code G7570). Viability (stated as percent of control) is defined as relative luminescence units RLU of each well divided by the RLU of cells in DMSO controls. IC50 values were determined from viability measurements by non-linear regression using a four parameter model.

Data set [2] concerns the target Ba/F3 cells bearing a KRAS G12C mutation (Homo sapiens, UniProt P01116, G12C, cells depend on it). The experiment in a line: Ba/F3 cell model proliferation assay (AlamarBlue, 72 h). It counts as cell-based. The settings on record: Ba/F3 KRAS G12C cells, 72 h, 10% FCS, uncorrected; read-out: IC50 Ba/F3 KRASG12C. As to the method:
Ba/F3 Cell Model Generation and Proliferation Assay
Plasmids containing KRASG12 mutants were obtained from GeneScript. To generate KRASG12-dependent Ba/F3 models, Ba/F3 cells were transduced with retroviruses containing vectors that harbor KRASG12 isoforms. Platinum-E cells (Cell Biolabs) were used for retrovirus packaging. Retrovirus was added to Ba/F3 cells. To ensure infection, 4 μg/mL polybrene was added and cells were spinfected. […] Cells with an infection efficiency of 10% to 20% were further cultivated and puromycin selection with 1 μg/mL was initiated. As a control, parental Ba/F3 cells were used to show selection status. Selection was considered successful when parental Ba/F3 cells cultures died. To evaluate the transforming potential of KRASG12 mutations, the growth medium was no longer supplemented with IL-3. Ba/F3 cells harboring the empty vector were used as a control. Approximately ten days before conducting the experiments, puromycin was left out.
All treatments were performed in technical duplicates. The assay is run using a fully automated robotic system. Treated cells were incubated for 72 h at 37° C. with 5% CO2. AlamarBlue™ (ThermoFisher), a viability stain, was added and fluorescence measured in the PerkinElmer Envision HTS Multilabel Reader.
(In general: Alamar Blue is a resazurin reagent that responds to reducing activity.)

The test system of data set [3] is SW837 cells. Description: SW837 CTG proliferation assay (CRC). It is filed as cell-based. The note with it: Homo sapiens. As to the method: SW837 CTG Proliferation Assay (CRC)
SW837 cells (ATCC #CCL-235) were grown in cell culture flasks (175 cm^2) using L-15 10% FCS, 1% L-Glu, 1×NEAA and 1×Na-Pyrovat. Cultures were incubated at 37° C. and 0% CO2 in a humidified atmosphere, with medium change or subcultivation 2-3 times a week. Materials used for the assay were CulturPlate-384, White Opaque 384-well Microplate, Sterile and Tissue Culture Treated (Perkin Elmer #6007680), Leibovitz L15 Medium and FBS # SH30071.03 (HyClone).
(§1) The proliferation assays started (day1) with seeding cells in flat bottom 384 well microtiter plates in 90 μL L-15 10% FCS, 1% L-Glu, 1×NEAA and 1× Na-Pyrovat at a density of 500 cells/well. Any other luminescence compatible plate format is possible. On day 2, 10 μL dilutions of the test compounds covering a concentration range between app. 0, 1 and 10.000 nM were added to the cells. Cells were incubated for 5 days in a humidified, CO2 controlled (no CO2) incubator at 37° C. On day 7 100 μL of Cell Titer Glow reagent (Cell titer Glo Luminescent Cat. No. G7571, Promega) were added to each well and incubated for additional 10 min at room temperature (with agitation). Luminescence was measured on a Wallac Victor using standard luminescence read out. IC50 values were calculated using standard Levenburg Marquard algorithms (GraphPad Prism).

For data set [4], the system named is ERK phosphorylation in NCI-H358_Cas9_SOS2. Description: ERK phosphorylation assay 2 (AlphaLISA SureFire Ultra p-ERK1/2), SOS2 knock-out. The note with it: Homo sapiens, NCI-H358; assay 2 (marked with *); read-out: IC50 H358 pERK. It is filed as cell-based. An excerpt:
(§2) ERK Phosphorylation Assay
(§3) Materials Used for the Assay;

Data set [5] relates to MiaPaCa-2 cells. The experiment in a line: MiaPaCa-2 CTG proliferation assay (pancreatic cancer). It counts as cell-based. The settings on record: Homo sapiens, MIA PaCa-2, 120 h, read-out: IC50 MiaPACA2. The method, then:
MiaPaCa-2 CTG Proliferation Assay (Pancreatic Cancer)
MiaPaCa-2 cells (ATCC® CRM-CRL-1420™) were grown in cell culture flasks (175 cm^2) using DMEM medium supplemented with 10% fetal bovine serum. […] Materials used for the assay were CulturPlate-384, White Opaque 384-well microplate, Sterile and Tissue Culture Treated (Perkin Elmer #6007680), DMEM medium and FBS # SH30071.03 (HyClone).
as §1, with “μL DMEM medium supplemented with” for “μL L-15”, “10% FBS” for “10% FCS, 1% L-Glu, 1×NEAA and 1× Na-Pyrovat”, “humidified, incubator with 5%” for “humidified,”, “CO2” for “CO2 controlled (no CO2) incubator”, “100 μl” for “100 μL”

Data set [6] concerns the target T1, KRAS G12C::SOS1 protein-protein interaction (Homo sapiens, UniProt P01116, C118S/C51S/C80L/G12C).
T1 construct: His6 (N); host or cells: E. coli
The experiment in a line: KRAS::SOS1 AlphaScreen binding assay. An excerpt:
KRAS::SOS1 AlphaScreen Binding Assay
Reagents: • GST-tagged SOS1 (564_1049_GST_TEV_ECO) produced in-house • GST-TEV-SOS1 (564-1049) is purchased from Viva Biotech Ltd. • The expression construct of KRAS G12C (amino acids 1-169 of reference sequence P01116-2 (uniprot), with additional mutations: C51S, C80L, and C118S) containing a C-terminal avi-tag was obtained by gene synthesis (GeneArt, Thermo Fisher) in donor vector (pDONR-221) and transferred by recombinant cloning into pDEST17 vector bearing an N-terminal His6-tag. The protein was expressed in E. coli and the purified protein was biotinylated with the E. coli biotin ligase (BirA) before usage. • GDP (Sigma Cat No G7127) • AlphaLISA Glutathione Acceptor Beads (PerkinElmer, Cat No AL109) • AlphaScreen Streptavidin Donor Beads (PerkinElmer Cat No 6760002) • Assay plates: Proxiplate-384 PLUS, white (PerkinElmer, Cat No 6008289)
Assay Buffer: • 1×PBS • 0.1% BSA • 0.05% Tween 20
7.5 nM (final assay concentration) KRAS G12C, 10 μM (final assay concentration) GDP and 5 nM (final assay concentration) GST-SOS1 are mixed in assay buffer prior to use and kept at room temperature.
AlphaLISA Glutathione Acceptor Beads and AlphaScreen Streptavidin Donor Beads are mixed in assay buffer at a concentration of 10 μg/mL (final assay concentration) each prior to use and kept at room temperature.
Compounds are diluted to a final start concentration of 100 μM and are tested in duplicate. Assay-ready plates (ARPs) are generated using an Access Labcyte Workstation with a Labcyte Echo 550 or 555 accoustic dispenser. For compound a start concentration of 100 μM, 150 nL of compound solution is transferred per well in 11 concentrations in duplicate with serial 1:5 dilutions.
The assay is run using a fully automated robotic system in a darkened room below 100 Lux. 10 μL of KRAS::SOS1 GDP mix is added into columns 1-24 to the 150 nL of compound solution (final dilution in the assay 1:100, final DMSO concentration 1%).
After 30 minutes incubation time 5 μL of bead mix is added into columns 1-23. Plates are kept at room temperature in a darkened incubator. After further 60 minutes incubation, the signal is measured using a PerkinElmer Envision HTS Multilabel Reader using the AlphaScreen specifications from PerkinElmer. Each plate contains the following controls: • diluted DMSO+KRAS::SOS1 GDP mix+bead mix • diluted DMSO+KRAS::SOS1 GDP mix
IC50 values are calculated and analyzed using a 4 parametric logistic model.
Tables of example compounds disclosed herein contain IC50 values determined using the above assay.

The subject of data set [7] is ERK phosphorylation in NCI-H358 (KRAS G12C mutation). The experiment in a line: ERK phosphorylation assay 1 (AlphaLISA SureFire Ultra p-ERK1/2). It counts as cell-based. The note with it: Homo sapiens, assay 1 (not marked with *), read-out: IC50 H358 pERK.
Excerpt: as §2, §3
(Bead proximity is the source of the signal in Alpha formats.)

Data set [8] in a line: Plasma protein binding (equilibrium dialysis), mouse plasma. It is filed as in vitro ADME. The settings on record: read-out: PPB mouse fu. As to the method:
(§4) Plasma Protein Binding (PPB)
(§5) Binding of test compound to plasma was determined using equilibrium dialysis (ED) and quantitative mass spectrometry interfaced with liquid chromatography (LC-MS). In brief, ED was performed with dialysis devices consisting of two chambers separated by a semipermeable membrane with a molecular weight cut-off of 5-10 kg/mol. One chamber was filled with commercially sourced plasma (mouse and human plasma, respectively) or serum (10% FCS in PBS) containing 1-10 μmol/L test compound and the other chamber was filled with phosphate-buffer saline (PBS) with or without dextran. The dialysis chamber was incubated for 3-5 hours at 37° C. After incubation, protein was precipitated from aliquots of each chamber and the concentration of test compound in the supernatant of the plasma-containing compartment (cplasma) and of the buffer-containing compartment (Cbuffer) was determined by LC-MS. The fraction of unbound test compound (not bound to plasma) (fu) was calculated according to the following equation: […]
For orientation: In equilibrium dialysis only unbound substance equilibrates across the membrane.

A short description of data set [9]: Plasma protein binding (equilibrium dialysis), serum 10% FCS in PBS. It counts as in vitro ADME. The settings on record: bovine, 10% FCS in PBS (serum), read-out: PPB 10% FCS fu. The method, then: as §4, §5
Data set [10] in a line: Plasma protein binding (equilibrium dialysis), human plasma. It is filed as in vitro ADME. The settings on record: read-out: PPB human fu. As to the method:
as §4, §5

The mark [11] stands for this setting: SW837 CTG proliferation, read-out: IC50 SW837.
The mark [12] stands for this setting: MiaPaCa-2 CTG proliferation, 5 days.

Like-named read-outs stand apart in the source and are kept apart here.

T1 sequence (P01116 1-169 isoform P01116-2 G12C/C51S/C80L/C118S): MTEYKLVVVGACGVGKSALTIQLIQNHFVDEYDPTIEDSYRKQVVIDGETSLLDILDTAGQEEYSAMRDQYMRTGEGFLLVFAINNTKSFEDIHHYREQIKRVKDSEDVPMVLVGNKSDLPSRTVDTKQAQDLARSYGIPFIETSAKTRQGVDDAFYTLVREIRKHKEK
Chain of Ba/F3 cells bearing a KRAS G12C mutation (P01116 whole entry G12C): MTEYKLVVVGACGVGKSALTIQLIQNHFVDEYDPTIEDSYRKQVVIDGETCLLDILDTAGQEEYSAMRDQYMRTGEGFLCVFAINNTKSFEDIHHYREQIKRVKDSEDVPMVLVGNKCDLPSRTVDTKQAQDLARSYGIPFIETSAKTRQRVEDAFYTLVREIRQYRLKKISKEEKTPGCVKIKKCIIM

Consider `C=CC(=O)N1CCN(c2cc(O[C@@H](C)[C@@H]3CCCN3C)nc(-c3cc(C4(C)CCCc5sc(N)c(C#N)c54)no3)n2)CC1` (stereo partly shown) [Ic-1], for which the IC50 in data set [1] was 3.13 nM; in data set [3] (setting [11]), 1.3 nM; in [4], 1.6 nM; in data set [5] (setting [12]), 23.8 nM; in [6] (KRAS G12C::SOS1 AlphaScreen), 3 nM. The GI50 in data set [2] is 1.5 nM.
Consider `C=CC(=O)N1CCN(c2cc(O[C@@H](C)[C@@H]3CCCN3C)nc(-c3cc([C@@]4(C)CCCc5sc(N)c(C#N)c54)no3)n2)[C@H](C)C1` [Ic-2], for which the IC50 was 4.75 nM in data set [1]; 3.67 nM in [3] (setting [11]); 3.7 nM in data set [4]; 9.01 nM in data set [5] (setting [12]); 2 nM in data set [6] (KRAS G12C::SOS1 AlphaScreen). Also, the GI50 in [2] stood at 2.3 nM.
On to `C=CC(=O)N1CCN(c2cc(N3CCN(C)CC3)nc(-n3cc(C4(C)CCCc5sc(N)c(C#N)c54)cn3)c2)CC1` (stereo not shown) [Ie-1], for which the IC50 came out at 125 nM in [7] and 280 nM in [6] (KRAS G12C 7.5 nM, GST-SOS1 5 nM, GDP 10 μM).
For the molecule `C=CC(=O)N1CCN(c2nc(=O)n(-c3c(C)ccnc3C(C)C)c3nc(-c4c(O)cccc4F)c(F)cc23)[C@@H](C)C1` [sotorasib, reference compound], the IC50 in data set [3] (SW837, read-out: IC50 SW837) amounted to 17 nM; in data set [5] it was 49 nM. In addition, the results for the fraction unbound in [8], in [9] and in data set [10] were 0.094, 0.774 and 0.027, respectively.
